Measurements published in ChEMBL document CHEMBL1201862, “PubChem BioAssay data set” (2004).
Calls of active or inactive are those of the source.

Assays:
[1] = target: T1, Voltage-gated N-type calcium channel alpha-1B subunit/Amyloid beta A4 precursor protein-binding family A member 1 (Homo sapiens, UniProt Q00975+Q02410); assay type: protein assay
[2] = target: T1, Voltage-gated N-type calcium channel alpha-1B subunit/Amyloid beta A4 precursor protein-binding family A member 1; assay type: protein assay; remark: listed apart in the source
Hexokinase HKDC1 = target: T2, Hexokinase HKDC1 (Homo sapiens, UniProt Q2TB90); assay: HKDC1 hexokinase activators, dose response, biochemical, W721R variant (AID 504730); assay type: functional
T2 sequence (Q2TB90 whole entry): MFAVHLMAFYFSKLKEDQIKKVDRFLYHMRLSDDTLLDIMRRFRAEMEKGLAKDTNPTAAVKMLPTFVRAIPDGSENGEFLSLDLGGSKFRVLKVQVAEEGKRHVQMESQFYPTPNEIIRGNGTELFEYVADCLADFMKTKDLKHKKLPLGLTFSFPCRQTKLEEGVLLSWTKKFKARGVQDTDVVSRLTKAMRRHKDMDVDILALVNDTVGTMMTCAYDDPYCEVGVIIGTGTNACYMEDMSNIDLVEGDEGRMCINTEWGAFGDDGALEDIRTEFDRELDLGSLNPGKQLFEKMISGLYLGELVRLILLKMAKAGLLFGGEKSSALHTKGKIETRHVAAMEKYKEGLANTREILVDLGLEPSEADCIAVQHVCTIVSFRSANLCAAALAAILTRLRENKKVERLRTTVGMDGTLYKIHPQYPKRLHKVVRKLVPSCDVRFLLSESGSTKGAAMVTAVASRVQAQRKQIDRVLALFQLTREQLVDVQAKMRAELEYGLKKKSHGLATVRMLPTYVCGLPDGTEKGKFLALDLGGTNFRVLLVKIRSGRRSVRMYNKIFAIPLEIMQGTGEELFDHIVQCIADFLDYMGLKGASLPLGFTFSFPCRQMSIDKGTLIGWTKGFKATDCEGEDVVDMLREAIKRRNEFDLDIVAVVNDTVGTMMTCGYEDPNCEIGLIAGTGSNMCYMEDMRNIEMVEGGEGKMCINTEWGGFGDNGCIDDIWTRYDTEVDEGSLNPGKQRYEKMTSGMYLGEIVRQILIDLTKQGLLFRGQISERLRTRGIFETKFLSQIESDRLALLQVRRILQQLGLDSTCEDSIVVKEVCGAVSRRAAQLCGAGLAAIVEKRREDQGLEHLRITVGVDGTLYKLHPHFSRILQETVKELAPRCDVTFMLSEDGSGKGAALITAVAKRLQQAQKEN

[3] = target: Luciferin 4-monooxygenase (Photinus pyralis, UniProt P08659); assay: Counter Screen for Luciferase-based Assay Positives. [Related pubchem assays: 620, 618, 411 ]
Chain of Luciferin 4-monooxygenase (P08659 whole entry): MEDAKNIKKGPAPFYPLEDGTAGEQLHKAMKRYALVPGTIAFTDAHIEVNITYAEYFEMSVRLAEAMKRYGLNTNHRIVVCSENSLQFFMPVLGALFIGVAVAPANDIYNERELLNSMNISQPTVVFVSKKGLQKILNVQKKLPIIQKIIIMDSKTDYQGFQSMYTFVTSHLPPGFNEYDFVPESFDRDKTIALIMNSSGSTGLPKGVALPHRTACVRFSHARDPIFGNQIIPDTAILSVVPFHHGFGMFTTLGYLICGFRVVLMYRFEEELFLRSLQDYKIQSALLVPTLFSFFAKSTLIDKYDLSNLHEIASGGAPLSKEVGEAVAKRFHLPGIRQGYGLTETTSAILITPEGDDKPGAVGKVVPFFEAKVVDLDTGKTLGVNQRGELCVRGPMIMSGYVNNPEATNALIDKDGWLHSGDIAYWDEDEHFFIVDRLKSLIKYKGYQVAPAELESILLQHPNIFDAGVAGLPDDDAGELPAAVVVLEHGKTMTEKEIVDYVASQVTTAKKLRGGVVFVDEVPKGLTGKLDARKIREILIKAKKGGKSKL

Hexokinase-1 = target: T3, Hexokinase-1 (Homo sapiens, UniProt P19367); assay: hexokinase 1 activators, dose response, selectivity assay for HKDC1 activator project, biochemical (AID 504762); assay type: functional
T3 sequence (P19367 whole entry): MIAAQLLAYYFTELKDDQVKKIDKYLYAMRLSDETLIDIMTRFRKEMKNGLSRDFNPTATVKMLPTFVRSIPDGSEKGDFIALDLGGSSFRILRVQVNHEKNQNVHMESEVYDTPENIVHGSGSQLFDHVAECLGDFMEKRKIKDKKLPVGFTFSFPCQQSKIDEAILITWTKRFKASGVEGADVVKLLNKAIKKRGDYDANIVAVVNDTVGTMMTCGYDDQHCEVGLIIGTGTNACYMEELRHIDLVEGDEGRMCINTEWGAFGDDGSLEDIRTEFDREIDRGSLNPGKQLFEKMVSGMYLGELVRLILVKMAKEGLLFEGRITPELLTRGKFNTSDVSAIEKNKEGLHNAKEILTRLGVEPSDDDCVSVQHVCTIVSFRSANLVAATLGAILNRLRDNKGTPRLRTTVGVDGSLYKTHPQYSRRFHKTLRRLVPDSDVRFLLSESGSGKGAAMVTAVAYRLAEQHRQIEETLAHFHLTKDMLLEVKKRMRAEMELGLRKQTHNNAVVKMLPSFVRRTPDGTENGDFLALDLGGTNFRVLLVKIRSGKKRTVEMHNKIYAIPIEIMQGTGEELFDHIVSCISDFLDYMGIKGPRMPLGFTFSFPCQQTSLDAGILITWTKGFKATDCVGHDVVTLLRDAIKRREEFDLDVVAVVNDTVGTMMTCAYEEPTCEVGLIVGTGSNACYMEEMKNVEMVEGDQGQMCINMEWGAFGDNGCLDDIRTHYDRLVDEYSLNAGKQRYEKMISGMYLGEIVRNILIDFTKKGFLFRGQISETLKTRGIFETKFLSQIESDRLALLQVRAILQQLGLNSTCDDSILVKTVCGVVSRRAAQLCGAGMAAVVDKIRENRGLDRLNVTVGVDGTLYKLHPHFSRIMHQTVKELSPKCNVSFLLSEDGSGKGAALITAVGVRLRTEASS

HT-1080 = assay: cytotoxicity in HT1080 fibrosarcoma cells, cell-based, fluorescence readout (AID 620); assay type: functional; details: Homo sapiens
Cytochrome P450 2D6 = Cytochrome P450 2D6 (Homo sapiens, UniProt P10635);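 further: CYP2D6 member of a cytochrome P450 panel assay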
Chain of Cytochrome P450 2D6 (P10635 whole entry): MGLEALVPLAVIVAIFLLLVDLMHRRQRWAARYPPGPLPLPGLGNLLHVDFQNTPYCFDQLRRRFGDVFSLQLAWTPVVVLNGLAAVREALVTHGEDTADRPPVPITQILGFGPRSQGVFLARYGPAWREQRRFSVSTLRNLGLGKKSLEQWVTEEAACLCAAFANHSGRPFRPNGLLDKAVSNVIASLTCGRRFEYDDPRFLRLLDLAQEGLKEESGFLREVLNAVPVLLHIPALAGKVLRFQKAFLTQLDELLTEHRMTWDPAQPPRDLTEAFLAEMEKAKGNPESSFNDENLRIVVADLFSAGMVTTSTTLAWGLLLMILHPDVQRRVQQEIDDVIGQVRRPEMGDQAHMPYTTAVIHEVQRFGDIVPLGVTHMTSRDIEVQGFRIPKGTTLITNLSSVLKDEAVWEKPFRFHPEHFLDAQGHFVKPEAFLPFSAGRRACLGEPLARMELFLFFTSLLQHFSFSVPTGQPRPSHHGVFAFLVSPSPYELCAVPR

[4] = cytotoxicity toward NIH3T3 fibroblasts, dose response, counter-screen, cell-based, ATP luminescence, mouse fibroblasts (AID 2010); assay type: functional;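 further: cells exposed to compound for about 90 hours before reading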
[5] = control 3'UTR Renilla luciferase suppression, dose response, counter-screen for Shn3 inhibitor project, cell-based, Clone20-Shn3RL, cherry-picked (AID 624133); assay type: functional
[6] = target: Heat shock protein HSP 90-alpha (Homo sapiens, UniProt P07900); assay type: functional, organism-based
[7] = inhibitors of intracellular T. cruzi replication, confirmation, NIH3T3 host cells, beta-gal luminescence (AID 2044); assay type: functional, cell-based;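 further: intracellular parasites grown in NIH/3T3 mouse fibroblasts as host cells; luminescent beta-galactosidase reporter signal from transgenic T. cruzi replicating inside host cells; inhibitors lower the luminescence signal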
Streptococcus = assay: Group A Streptococcus viability loss, dose response, counter-screen for streptokinase expression inhibitor project, luminescence, BacTiterGlo (AID 1915); assay type: functional, organism-based;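 further: potency for reduction of bacterial viability or growth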
[8] = HepG2 cell cytotoxicity, dose response, cytotoxicity control for Shn3 inhibitor project, CellTiter-Glo, cherry-picked (AID 624134); assay type: functional, cell-based
[9] = tested on: Streptococcus sp. 'group A'; assay: growth inhibition of control SK(-) GAS strain, dose response, counter-screen for streptokinase expression inhibitor project, luminescence, kanamycin, BacTiterGlo, confirmation (AID 1900); assay type: functional, organism-based
[10] = Shn3 3'UTR reporter inhibitors, dose response, cell-based, Clone20 osteoblasts, firefly luciferase, cherry-picked (AID 624132); assay type: functional;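 further: firefly luciferase luminescence from reporter carrying the Shn3 3'UTR in osteoblasts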
[11] = target: T4, Tyrosine-protein phosphatase non-receptor type 22 (Homo sapiens, UniProt Q9Y2R2); assay type: functional
T4 sequence (Q9Y2R2 whole entry): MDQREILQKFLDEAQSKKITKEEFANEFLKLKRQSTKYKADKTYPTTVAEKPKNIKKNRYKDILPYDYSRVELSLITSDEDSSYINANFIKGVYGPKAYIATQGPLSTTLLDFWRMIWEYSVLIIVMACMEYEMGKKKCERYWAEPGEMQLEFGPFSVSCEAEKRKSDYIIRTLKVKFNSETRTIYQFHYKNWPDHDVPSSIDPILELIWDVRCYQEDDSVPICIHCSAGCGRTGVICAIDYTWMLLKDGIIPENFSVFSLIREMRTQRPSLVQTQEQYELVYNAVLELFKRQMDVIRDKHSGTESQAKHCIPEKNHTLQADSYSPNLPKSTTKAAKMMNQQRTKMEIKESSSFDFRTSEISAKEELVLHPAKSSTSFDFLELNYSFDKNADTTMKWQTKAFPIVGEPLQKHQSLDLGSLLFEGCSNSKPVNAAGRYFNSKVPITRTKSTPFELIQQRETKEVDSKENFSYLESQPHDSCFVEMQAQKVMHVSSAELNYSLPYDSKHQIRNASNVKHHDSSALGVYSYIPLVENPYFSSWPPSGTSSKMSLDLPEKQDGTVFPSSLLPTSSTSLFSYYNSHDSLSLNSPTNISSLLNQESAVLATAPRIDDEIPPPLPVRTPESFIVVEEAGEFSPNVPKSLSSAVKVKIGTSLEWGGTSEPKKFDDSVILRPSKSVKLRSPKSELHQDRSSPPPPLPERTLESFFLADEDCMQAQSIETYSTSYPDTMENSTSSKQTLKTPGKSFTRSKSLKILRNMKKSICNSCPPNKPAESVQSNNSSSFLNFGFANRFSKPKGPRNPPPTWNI

[12] = target: T4, Tyrosine-protein phosphatase non-receptor type 22; assay type: functional; remark: listed apart in the source
[13] = target: T5, Tyrosine-protein phosphatase non-receptor type 7 (Homo sapiens, UniProt P35236); assay type: functional
T5 sequence (P35236 whole entry): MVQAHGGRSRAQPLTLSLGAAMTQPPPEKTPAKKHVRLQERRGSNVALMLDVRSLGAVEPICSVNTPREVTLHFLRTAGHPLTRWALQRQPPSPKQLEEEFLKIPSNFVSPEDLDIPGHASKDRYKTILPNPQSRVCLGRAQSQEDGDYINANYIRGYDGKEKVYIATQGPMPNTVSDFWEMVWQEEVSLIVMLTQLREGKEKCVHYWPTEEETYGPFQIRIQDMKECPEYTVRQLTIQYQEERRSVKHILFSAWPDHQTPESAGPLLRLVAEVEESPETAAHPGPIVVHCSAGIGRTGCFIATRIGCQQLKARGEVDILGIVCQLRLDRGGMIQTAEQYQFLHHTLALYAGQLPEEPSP

INS1 = assay: beta cell apoptosis inhibitors, cytokine rescue, dose response, luminescence, retest (AID 449756); assay type: functional, cell-based; details: Rattus norvegicus;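 further: cell death triggered by IL-1 beta plus TNF-alpha plus IFN-gamma mixture; protective hits raise ATP signal compared with cytokine alone wells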
[14] = insulin promoter down-regulators in MIN6 cells, imaging, high-content screening, mouse beta cells (AID 1628); assay type: functional
[15] = cytotoxicity in MIN6 insulinoma cells, dose response, cytotoxicity control, cell-based, mouse insulinoma (AID 2122); assay type: functional;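 further: confirmatory high-throughput counterscreen run to flag cytotoxic compounds; mouse MIN-6 beta cells carrying an insulin promoter eGFP reporter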
[16] = target: G-protein coupled receptor 55 (Homo sapiens, UniProt Q9Y2T6); assay: GPR55 antagonists blocking LPI-driven arrestin recruitment, primary screen, imaging, U2OS, beta-arrestin-GFP, LPI agonist (AID 2013); assay type: functional;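 further: antagonist potency measured as reduced agonist-driven arrestin aggregation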
Chain of G-protein coupled receptor 55 (Q9Y2T6 whole entry): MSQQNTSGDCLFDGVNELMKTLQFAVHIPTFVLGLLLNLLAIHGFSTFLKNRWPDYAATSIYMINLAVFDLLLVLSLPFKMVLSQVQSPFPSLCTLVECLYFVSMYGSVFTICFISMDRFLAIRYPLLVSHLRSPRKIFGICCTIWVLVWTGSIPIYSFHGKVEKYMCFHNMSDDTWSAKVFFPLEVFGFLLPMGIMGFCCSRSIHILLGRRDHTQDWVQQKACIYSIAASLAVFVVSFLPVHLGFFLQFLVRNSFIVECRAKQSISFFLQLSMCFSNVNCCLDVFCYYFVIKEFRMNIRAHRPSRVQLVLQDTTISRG

Troponin, cardiac muscle = Troponin, cardiac muscle (Homo sapiens, UniProt P19429+P45379+P63316); assay: Fluorescence-based biochemical high throughput dose response assay for activators of the calcium sensitivity of cardiac Regulated Thin Filaments (RTF). [Related pubchem assays (depositor defined):AID493008, AID493018, AID504382, AID504383]; assay type: protein-complex assay
Bcl-2-related protein A1 = target: T6, Bcl-2-related protein A1 (Mus musculus, UniProt Q07440); assay type: functional;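 further: confirmatory dose–response counterscreen on Bfl-1, used to check hits from a UBC13 polyubiquitin inhibitor campaign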
T6 sequence (Q07440 whole entry): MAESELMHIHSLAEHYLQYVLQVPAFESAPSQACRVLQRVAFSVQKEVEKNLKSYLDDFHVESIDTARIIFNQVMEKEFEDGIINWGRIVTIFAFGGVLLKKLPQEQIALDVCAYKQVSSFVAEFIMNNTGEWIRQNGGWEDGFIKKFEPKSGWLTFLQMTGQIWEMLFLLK

[17] = target: T7, Ubiquitin-conjugating enzyme E2 N (Homo sapiens, UniProt P61088); assay type: functional
T7 sequence (P61088 whole entry): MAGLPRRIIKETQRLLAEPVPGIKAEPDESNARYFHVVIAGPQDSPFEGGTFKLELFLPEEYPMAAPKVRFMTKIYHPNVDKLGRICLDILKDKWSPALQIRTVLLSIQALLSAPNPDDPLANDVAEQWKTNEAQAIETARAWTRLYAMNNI

[18] = target: T7, Ubiquitin-conjugating enzyme E2 N; assay type: functional; remark: listed apart in the source

T1 sequence (Q00975 whole entry): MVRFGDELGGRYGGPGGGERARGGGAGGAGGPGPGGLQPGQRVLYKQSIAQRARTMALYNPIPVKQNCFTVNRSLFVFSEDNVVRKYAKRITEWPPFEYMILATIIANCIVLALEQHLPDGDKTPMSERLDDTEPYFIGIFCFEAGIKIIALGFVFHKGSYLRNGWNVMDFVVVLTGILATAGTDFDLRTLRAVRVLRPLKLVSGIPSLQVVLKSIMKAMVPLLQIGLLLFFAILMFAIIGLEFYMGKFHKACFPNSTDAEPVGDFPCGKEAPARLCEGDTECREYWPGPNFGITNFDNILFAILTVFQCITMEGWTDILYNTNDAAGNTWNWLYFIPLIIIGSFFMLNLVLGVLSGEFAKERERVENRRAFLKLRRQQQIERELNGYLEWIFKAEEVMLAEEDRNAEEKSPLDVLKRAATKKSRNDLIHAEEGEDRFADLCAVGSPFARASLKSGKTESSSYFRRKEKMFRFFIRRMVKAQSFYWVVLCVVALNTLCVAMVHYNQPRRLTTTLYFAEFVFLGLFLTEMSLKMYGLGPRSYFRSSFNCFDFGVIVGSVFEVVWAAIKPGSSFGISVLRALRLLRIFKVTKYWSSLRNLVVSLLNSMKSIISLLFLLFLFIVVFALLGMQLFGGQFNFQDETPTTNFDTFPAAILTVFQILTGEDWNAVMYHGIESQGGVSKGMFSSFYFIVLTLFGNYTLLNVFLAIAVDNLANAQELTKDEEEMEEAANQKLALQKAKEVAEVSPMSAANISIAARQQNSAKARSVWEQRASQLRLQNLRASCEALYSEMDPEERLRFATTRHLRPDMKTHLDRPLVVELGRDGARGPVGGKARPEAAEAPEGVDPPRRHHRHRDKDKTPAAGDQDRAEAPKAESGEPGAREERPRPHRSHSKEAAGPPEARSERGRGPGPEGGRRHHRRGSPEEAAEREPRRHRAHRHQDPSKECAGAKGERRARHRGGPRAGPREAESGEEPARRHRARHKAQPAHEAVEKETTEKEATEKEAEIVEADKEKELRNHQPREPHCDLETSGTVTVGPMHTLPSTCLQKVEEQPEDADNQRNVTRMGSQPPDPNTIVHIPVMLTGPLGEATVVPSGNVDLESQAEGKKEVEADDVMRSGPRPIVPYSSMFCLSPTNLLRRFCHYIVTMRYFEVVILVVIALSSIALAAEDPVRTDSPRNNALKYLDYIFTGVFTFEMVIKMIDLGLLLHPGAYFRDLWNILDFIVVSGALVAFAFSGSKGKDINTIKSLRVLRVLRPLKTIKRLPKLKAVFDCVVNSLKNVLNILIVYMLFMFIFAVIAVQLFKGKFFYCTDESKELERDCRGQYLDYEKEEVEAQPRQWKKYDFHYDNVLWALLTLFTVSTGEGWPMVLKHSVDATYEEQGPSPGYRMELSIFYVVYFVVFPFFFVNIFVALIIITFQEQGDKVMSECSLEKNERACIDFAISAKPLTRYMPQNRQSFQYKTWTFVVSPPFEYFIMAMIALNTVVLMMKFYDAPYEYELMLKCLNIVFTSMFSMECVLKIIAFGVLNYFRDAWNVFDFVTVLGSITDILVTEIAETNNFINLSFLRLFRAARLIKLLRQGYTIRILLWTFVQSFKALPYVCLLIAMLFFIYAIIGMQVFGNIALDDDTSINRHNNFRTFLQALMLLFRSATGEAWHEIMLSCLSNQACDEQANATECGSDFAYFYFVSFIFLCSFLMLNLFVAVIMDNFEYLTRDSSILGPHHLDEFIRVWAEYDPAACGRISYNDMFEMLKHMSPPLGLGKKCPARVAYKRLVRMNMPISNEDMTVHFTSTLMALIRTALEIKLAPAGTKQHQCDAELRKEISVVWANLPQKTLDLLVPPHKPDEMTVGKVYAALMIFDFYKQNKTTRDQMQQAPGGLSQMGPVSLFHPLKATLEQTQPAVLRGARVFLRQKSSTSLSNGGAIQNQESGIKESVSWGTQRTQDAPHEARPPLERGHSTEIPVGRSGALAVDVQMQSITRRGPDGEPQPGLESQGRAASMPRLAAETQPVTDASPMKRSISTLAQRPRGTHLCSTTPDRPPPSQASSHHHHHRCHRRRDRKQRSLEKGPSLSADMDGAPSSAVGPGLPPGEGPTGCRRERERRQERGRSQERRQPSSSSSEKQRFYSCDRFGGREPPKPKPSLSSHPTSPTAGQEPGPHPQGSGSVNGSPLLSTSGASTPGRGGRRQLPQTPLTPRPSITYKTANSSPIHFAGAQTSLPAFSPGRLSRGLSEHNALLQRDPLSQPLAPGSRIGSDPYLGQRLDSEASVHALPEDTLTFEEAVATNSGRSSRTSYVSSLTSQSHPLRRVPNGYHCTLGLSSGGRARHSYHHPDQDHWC
T1 sequence (Q02410 whole entry): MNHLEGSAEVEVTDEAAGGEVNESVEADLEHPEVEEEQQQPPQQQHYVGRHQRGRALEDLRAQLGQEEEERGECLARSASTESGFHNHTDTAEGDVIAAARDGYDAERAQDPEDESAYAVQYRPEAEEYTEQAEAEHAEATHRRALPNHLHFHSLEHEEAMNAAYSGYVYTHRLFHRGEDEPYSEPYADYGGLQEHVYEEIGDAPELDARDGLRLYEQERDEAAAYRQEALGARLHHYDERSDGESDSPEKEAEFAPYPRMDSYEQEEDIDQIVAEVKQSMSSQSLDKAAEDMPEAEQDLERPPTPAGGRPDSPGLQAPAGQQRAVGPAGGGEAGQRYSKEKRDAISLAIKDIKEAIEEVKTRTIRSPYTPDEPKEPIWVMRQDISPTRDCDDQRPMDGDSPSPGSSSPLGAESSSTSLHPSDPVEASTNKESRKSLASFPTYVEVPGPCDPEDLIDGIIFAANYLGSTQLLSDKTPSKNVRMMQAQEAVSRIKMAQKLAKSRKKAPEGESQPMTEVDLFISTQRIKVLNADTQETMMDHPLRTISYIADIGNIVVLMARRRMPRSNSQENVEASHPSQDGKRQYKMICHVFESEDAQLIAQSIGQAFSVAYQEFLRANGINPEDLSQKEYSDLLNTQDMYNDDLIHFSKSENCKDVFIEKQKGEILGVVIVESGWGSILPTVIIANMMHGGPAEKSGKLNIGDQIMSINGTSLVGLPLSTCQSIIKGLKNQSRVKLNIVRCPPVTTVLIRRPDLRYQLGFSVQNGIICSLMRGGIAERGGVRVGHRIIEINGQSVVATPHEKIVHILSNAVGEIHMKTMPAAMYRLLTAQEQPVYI

## O=C(NCCO)c1cc(-c2cc(C(=O)NCCO)c3ccccc3n2)nc2ccccc12
[1]
  IC50: > 50 µM (inactive)
[2]
  IC50: 6.83 µM (active)

## CCNC1=NN=C(c2ccc(C)cc2)CS1
Hexokinase HKDC1
  EC50: 51.6 µM (inactive)
[3]
  EC50: 1.03 µM (active)
Hexokinase-1
  EC50: 63.1 µM (inactive)
HT-1080
  EC50: > 50 µM (not active)
Cytochrome P450 2D6
  AC50: 14.1 µM (inconclusive)

## COc1ccc(/C=C/C(=O)NC(=S)NNC(=O)c2cnccn2)cc1
[4]
  EC50: 15.2 µM (active)
Hexokinase HKDC1
  EC50: 2.23 µM (active)
[5]
  AC50: 2.05 µM (active)
[6]
  AC50: 1.95 µM (active)
[7]
  EC50: 0.955 µM (active)
Hexokinase-1
  EC50: > 80 µM (inactive)
Streptococcus
  EC50: 6.88 µM (active)
[8]
  AC50: 42.4 µM (active)
[9]
  EC50: 4.07 µM (active)
[10]
  AC50: 15.4 µM (active)

## COc1ccc(OCC(=O)N/N=C/c2ccc(OC)c(OC)c2C(=O)O)cc1
[11]
  IC50: > 79.4 µM (inactive)
[12]
  IC50: > 79.4 µM (inactive)
[13]
  IC50: > 79.4 µM (inactive)

## Cc1cc2ncc(Cl)nc2cc1C
[11]
  IC50: > 79.4 µM (inactive)
[12]
  IC50: > 79.4 µM (inactive)
[13]
  IC50: > 79.4 µM (inactive)

## Nc1ccc(Br)cc1-c1nc2ccccc2nc1O
INS1
  AC50: 0.63 µM (active)
[14]
  IC50: < 0.25 µM (active)
[15]
  IC50: < 0.25 µM (active)

## CC(C)(C)c1ccc(CN2C(=O)CN=C(c3ccccc3)c3ccccc32)cc1
[16]
  IC50: 3.35 µM (active)

## c1ccc(Cn2c(-c3ccccc3)nc3nc4ccccc4nc32)cc1
Troponin, cardiac muscle
  EC50: > 71.5 µM (inactive)

## Cc1cc(O)ccc1C1(c2ccc(O)cc2C)OC(=O)c2ccccc21
[16]
  IC50: 3.46 µM (active)

## O=C(CCCCCn1c(=O)[nH]c2ccccc2c1=O)NCCc1c[nH]c2ccccc12
Bcl-2-related protein A1
  IC50: > 20 µM (inactive)
[17]
  IC50: 19.3 µM (active)
[18]
  IC50: 18.1 µM (active)

## CC(=O)N(C)c1ccc(C(O)(C(F)(F)F)C(F)(F)F)cc1
Troponin, cardiac muscle
  EC50: > 71.5 µM (inactive)

## Cc1onc(-c2ccccc2)c1C(=O)Nc1cccc2nsnc12
Bcl-2-related protein A1
  IC50: > 20 µM (inactive)
[17]
  IC50: 15.6 µM (active)
[18]
  IC50: > 20 µM (inactive)
